Laboratory results as given in PubChem BioAssay (NCI).
Where “and” joins values, the source holds several entries; their conditions need not be identical. Identical values can stand only once.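 Five concentrations, 48 hours, 96-well plates. GI50: concentration for 50% inhibition of growth. TGI denotes the concentration required for complete inhibition of growth.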

Tests used:
Experiment in all cases: NCI-60 cell line screen, 48 h
DU-145 prostate = system: DU-145 prostate
XF 498 CNS = system: XF 498 CNS
SNB-78 CNS = system: SNB-78 CNS
DLD-1 colon = system: DLD-1 colon
KM20L2 colon = system: KM20L2 colon
M19-MEL melanoma = system: M19-MEL melanoma
RXF-631 renal = system: RXF-631 renal
MDA-N = system: MDA-N

Structure (SMILES) | GI50 (DU-145 prostate) [µM] | TGI (DU-145 prostate) | TGI (XF 498 CNS) [µM] | TGI (SNB-78 CNS) [µM] | TGI (DLD-1 colon) [µM] | TGI (KM20L2 colon) [µM] | TGI (M19-MEL melanoma) [µM] | further results
O=C(Nc1ccc(-n2cc(-c3ccncc3)c(-c3ccc(Cl)c(O)c3)n2)cc1)c1cc(C(F)(F)F)cc(C(F)(F)F)c1 | 12.3 | 54.7 µM | – | – | – | – | – | –
CN1CCCc2nc3ccccc3n2C1 | – | – | > 100 | > 100 | > 100 | > 100 | > 100 | –
O=C(Nc1nc(=S)[nH][nH]1)C(=O)C(c1cnc2ccc([N+](=O)[O-])cc2n1)[N+](=O)[O-] (stereo not given) | – | – | > 100 | > 100 | > 100 | > 100 | > 100 | TGI (RXF-631 renal): > 100 µM
CC(=O)C1(C(=O)C(=[N+]=[N-])S(=O)(=O)c2ccccc2)CC1 | – | > 100 µM | – | – | – | – | – | TGI (MDA-N): > 100 µM
O=C1Nc2ccc(-c3cccnc3)cc2/C1=C/c1cc(Br)c(O)c(Br)c1 | 6.28 | > 25 µM | – | – | – | – | – | –
COc1ccc([C@@]23Oc4cc(OC)cc(OC)c4[C@]2(O)[C@H](O)[C@H](C(=O)N(C)C)[C@H]3c2ccccc2)cc1 | 0.0135 | 0.0635 µM and 0.0375 µM and 0.219 µM | – | – | – | – | – | –
N#Cc1ccccc1Sc1ccccc1N | – | – | > 100 | > 100 | > 100 | – | > 100 | –
Cc1cc(OC2OC(CO)C(O)C(O)C2O)ccc1O (stereo not given) | – | – | – | – | – | – | – | TGI (MDA-N): > 100 µM
CCc1c(OC(C)=O)c2c(NC3OC(COC(C)=O)C(OC(C)=O)C(OC(C)=O)C3OC(C)=O)nc(SC)nc2oc1=O (stereo not given) | – | – | > 100 | > 100 | > 100 | > 100 | > 100 | TGI (RXF-631 renal): > 100 µM
C/C(=C/CCC(C)[C@@H]1CC[C@]2(C)C3=C(CC[C@@]12C)[C@@]1(C)CCC(=O)C(C)(C)[C@@H]1CC3)C(=O)O (stereo not given in full) | 1.2 | 2.56 µM | – | – | – | – | – | –
Cc1ccc(S(=O)(=O)Nc2ccccc2C(C)(C)C)cc1 | – | – | 44.8 | > 100 | > 100 | 36.7 | 82.3 | –
Nc1nc(-c2ccccc2)c(CC(=O)O)s1 | – | > 100 µM | – | – | – | – | – | TGI (MDA-N): > 100 µM
CCC(Oc1ccc(OC)c2c1C(=O)CCC2)C(=O)O (stereo not given) | – | – | > 100 | > 100 | > 100 | – | > 100 | –
O=C([O-])c1ccc([I+]c2ccccc2)cc1 | – | – | > 100 | > 100 | > 100 | > 100 | > 100 | TGI (RXF-631 renal): > 100 µM
Nc1nc(Cl)c2ncn(Cc3ccc(C45CC6CC(CC(C6)C4)C5)c(OCc4cc(F)c(F)cc4F)c3)c2n1 | 4.08 | 15.7 µM | – | – | – | – | – | –
O=C(CCCCN1CCN(CCCCC(=O)Nc2ccccc2C#C/C=C\C#Cc2ccccc2C(F)(F)F)CC1)Nc1ccccc1C#C/C=C\C#Cc1ccccc1C(F)(F)F | 17.4 | > 50 µM | – | – | – | – | – | –
O=[N+]([O-])/C=C/c1ccc2ccccc2c1 | – | > 35.9 µM | – | – | – | – | – | –
Nc1c(C(=O)Nc2ccccc2)sc2nc3c(cc12)C(=O)CCC3 | 0.328 | 19.9 µM | – | – | – | – | – | –
COc1cccc(-c2cc(=O)c3cc(N4CCN(C)CC4)ccc3[nH]2)c1 | – | – | – | – | – | – | – | GI50 (MDA-N): 349 nM; TGI (MDA-N): 0.923 µM and 4.25 µM
CCCCCCCCCCCCCCCC(=O)OCC1OC(n2cc(F)c(=O)[nH]c2=O)C(NC(=O)OCc2ccccc2)C(O)C1O (stereo not given) | – | – | 31.1 | 52.1 | – | 41.9 | 40.5 | TGI (RXF-631 renal): 34.9 µM

Structure (SMILES) | GI50 (DU-145 prostate) [µM] | TGI (DU-145 prostate) | TGI (XF 498 CNS) [µM] | TGI (SNB-78 CNS) [µM] | TGI (DLD-1 colon) [µM] | TGI (KM20L2 colon) [µM] | TGI (M19-MEL melanoma) [µM] | further results
CS(=O)(=O)OCCN1CCN(C(=O)c2ccc(Cl)c3c(Nc4ccc(S(=O)(=O)N=C(N)N)cc4)c4ccccc4nc23)CC1 | – | – | > 100 | – | > 100 | > 100 | > 100 | TGI (RXF-631 renal): > 100 µM
O=C1C=CC2(CCC23C=CC(=O)O3)O1 (stereo not given) | – | – | > 100 | > 100 | > 100 | > 100 | > 100 | TGI (RXF-631 renal): > 100 µM
C#Cc1cccc(NC(=O)/C=C\C(=O)O)c1 | – | – | – | > 100 | > 100 | > 100 | – | –
N=C(N)n1cc(/C=N/N=C(N)N)cn1 | – | > 100 µM | – | – | – | – | – | TGI (MDA-N): > 100 µM
CC(C)c1ccc(Cc2ccc(C(C)C)c(NC(=O)C(=O)Cc3cnc4ccccc4n3)c2C(C)C)c(C(C)C)c1NC(=O)C(=O)Cc1cnc2ccccc2n1 | – | – | – | > 100 | > 100 | > 100 | > 100 | TGI (RXF-631 renal): > 100 µM
CCOC(=O)c1cn(C)c2c(OC)c3ccccc3c(OC)c2c1=O | 63 | > 100 µM | – | – | – | – | – | –
OCCNc1nc2ccccc2c2[nH]c3ccccc3c12 | 0.659 | 12.5 µM | – | – | – | – | – | –
NC(=O)c1nc(-c2c(F)cccc2Cl)oc1Nc1ccc(C(=O)N2CCOCC2)cc1 | 11.9 | > 100 µM | – | – | – | – | – | –
CC(=O)Nc1cccc(C#Cc2cncnc2Nc2ccc(OCc3cccc(F)c3)c(Cl)c2)c1 | 10 | > 25 µM | – | – | – | – | – | –
COc1ccc(N(CC(=O)O)N=O)cc1 | – | > 100 µM | – | – | – | – | – | TGI (MDA-N): > 100 µM
CN(C)CCNC(=O)Nc1ccc(N(C)c2ccnc(Nc3ccc(CS(C)(=O)=O)cc3)n2)cc1 | > 25 | > 25 µM | – | – | – | – | – | –
C#COc1cccc(Nc2ncnc3cc(NC(=O)[C@@H](C)Cl)ccc23)c1 | 16.2 | > 62.5 µM | – | – | – | – | – | –
Cn1cc(-c2ccc3ncc(-c4ccc(CC(=O)Nc5cc(C(C)(C)C)nn5C)cc4)cc3c2)cn1 | 1.1 | > 20 µM | – | – | – | – | – | –
S=C(Sc1ccc(Cl)cc1)Sc1ccc(Cl)cc1 | 3.6 | 11.4 µM | – | – | – | – | – | –
C=C1C(=O)O[C@@H]2C[C@@]3(C)[C@H](O)CCC(=C)[C@@H]3C[C@H]12 | – | – | 9.74 | 27.8 | 16.5 | 20.3 | 32.9 | TGI (RXF-631 renal): 28.1 µM
CCOC(=O)C1=C(C)N(NC(N)=O)C2(N)N(NC(N)=O)C(C)=C(C(=O)OCC)C12C#N (stereo not given) | – | – | > 100 | – | > 100 | > 100 | > 100 | TGI (RXF-631 renal): > 100 µM
CCOC(=O)C[C@@]12CCCN[C@]1(C)CCc1ccccc12 | – | – | > 100 | > 100 | > 100 | > 100 | > 100 | –
CC(C)(C)C1=NO[C@H]2[C@@H](NC(=O)c3ccccc3)CC[C@@H]12 | – | – | > 100 | > 100 | > 100 | > 100 | > 100 | –
CCc1ccc(Oc2c(-c3ccc(OCc4ccc(Cl)cc4)cc3O)nn(C)c2C(F)(F)F)cc1 | 0.545 | 2.27 µM | – | – | – | – | – | –
